Assay [1] addresses T1, BRM (Homo sapiens, UniProt P51531).
T1 construct: made in house; host or cells: High Five insect cells
The experiment in a line: ATPase catalytic activity of BRM, ADP-Glo in vitro biochemical assay. The note with it: ATPase catalytic activity, 30 nM BRM, 400 μM ATP.

In assay [2] the target is T2, BRG-1 (Homo sapiens, UniProt P51532).
T2 construct: made in house; host or cells: High Five insect cells
Description: ATPase catalytic activity of BRG-1, ADP-Glo in vitro biochemical assay. The note with it: ATPase catalytic activity, 30 nM BRG-1, 400 μM ATP. (ADP-Glo turns the ADP formed in a reaction into a luminescent signal.)

Molecules are shown by their SMILES. Read-outs that look alike come from different tables or passages of the source.

T2 sequence (P51532 whole entry): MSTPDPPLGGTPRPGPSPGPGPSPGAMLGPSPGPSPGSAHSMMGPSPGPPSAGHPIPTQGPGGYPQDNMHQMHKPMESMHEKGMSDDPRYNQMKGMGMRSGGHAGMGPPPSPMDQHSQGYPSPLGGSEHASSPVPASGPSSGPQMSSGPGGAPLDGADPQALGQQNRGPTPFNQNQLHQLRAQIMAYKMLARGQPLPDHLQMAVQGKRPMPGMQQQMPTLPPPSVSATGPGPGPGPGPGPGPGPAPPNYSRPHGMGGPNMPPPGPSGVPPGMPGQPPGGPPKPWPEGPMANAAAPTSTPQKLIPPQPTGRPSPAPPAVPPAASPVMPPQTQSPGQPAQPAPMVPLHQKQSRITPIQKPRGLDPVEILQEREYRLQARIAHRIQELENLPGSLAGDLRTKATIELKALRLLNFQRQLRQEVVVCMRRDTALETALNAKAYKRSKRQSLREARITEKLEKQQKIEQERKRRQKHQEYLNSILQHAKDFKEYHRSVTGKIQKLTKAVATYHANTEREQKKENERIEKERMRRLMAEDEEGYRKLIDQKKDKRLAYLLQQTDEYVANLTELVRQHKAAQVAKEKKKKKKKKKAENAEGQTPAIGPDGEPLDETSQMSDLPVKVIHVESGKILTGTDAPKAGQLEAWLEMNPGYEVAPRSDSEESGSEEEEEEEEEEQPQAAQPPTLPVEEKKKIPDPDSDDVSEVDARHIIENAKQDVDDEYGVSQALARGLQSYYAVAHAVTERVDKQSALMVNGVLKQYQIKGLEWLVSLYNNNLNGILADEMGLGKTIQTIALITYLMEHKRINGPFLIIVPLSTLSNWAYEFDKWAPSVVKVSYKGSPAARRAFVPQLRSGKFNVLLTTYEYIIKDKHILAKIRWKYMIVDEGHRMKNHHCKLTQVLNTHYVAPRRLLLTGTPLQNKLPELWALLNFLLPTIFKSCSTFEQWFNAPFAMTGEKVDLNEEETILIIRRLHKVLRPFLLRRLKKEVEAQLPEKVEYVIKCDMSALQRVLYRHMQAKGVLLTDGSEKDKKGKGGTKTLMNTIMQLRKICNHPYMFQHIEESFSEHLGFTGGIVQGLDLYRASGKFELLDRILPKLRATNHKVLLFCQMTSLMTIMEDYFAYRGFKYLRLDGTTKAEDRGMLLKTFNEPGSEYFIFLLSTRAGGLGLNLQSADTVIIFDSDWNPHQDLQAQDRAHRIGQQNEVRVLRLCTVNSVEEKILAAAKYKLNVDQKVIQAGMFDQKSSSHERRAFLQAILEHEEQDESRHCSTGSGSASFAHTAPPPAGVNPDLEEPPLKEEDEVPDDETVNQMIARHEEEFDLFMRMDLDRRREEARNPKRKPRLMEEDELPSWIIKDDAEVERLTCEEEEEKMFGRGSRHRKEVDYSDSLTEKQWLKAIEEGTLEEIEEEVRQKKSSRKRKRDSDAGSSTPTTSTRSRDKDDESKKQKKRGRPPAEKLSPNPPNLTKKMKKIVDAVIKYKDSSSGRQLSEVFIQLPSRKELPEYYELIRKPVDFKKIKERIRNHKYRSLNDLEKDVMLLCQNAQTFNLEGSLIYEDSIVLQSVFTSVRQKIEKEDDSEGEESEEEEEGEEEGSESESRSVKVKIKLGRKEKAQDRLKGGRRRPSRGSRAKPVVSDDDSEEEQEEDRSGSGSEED
T1 sequence (P51531 whole entry): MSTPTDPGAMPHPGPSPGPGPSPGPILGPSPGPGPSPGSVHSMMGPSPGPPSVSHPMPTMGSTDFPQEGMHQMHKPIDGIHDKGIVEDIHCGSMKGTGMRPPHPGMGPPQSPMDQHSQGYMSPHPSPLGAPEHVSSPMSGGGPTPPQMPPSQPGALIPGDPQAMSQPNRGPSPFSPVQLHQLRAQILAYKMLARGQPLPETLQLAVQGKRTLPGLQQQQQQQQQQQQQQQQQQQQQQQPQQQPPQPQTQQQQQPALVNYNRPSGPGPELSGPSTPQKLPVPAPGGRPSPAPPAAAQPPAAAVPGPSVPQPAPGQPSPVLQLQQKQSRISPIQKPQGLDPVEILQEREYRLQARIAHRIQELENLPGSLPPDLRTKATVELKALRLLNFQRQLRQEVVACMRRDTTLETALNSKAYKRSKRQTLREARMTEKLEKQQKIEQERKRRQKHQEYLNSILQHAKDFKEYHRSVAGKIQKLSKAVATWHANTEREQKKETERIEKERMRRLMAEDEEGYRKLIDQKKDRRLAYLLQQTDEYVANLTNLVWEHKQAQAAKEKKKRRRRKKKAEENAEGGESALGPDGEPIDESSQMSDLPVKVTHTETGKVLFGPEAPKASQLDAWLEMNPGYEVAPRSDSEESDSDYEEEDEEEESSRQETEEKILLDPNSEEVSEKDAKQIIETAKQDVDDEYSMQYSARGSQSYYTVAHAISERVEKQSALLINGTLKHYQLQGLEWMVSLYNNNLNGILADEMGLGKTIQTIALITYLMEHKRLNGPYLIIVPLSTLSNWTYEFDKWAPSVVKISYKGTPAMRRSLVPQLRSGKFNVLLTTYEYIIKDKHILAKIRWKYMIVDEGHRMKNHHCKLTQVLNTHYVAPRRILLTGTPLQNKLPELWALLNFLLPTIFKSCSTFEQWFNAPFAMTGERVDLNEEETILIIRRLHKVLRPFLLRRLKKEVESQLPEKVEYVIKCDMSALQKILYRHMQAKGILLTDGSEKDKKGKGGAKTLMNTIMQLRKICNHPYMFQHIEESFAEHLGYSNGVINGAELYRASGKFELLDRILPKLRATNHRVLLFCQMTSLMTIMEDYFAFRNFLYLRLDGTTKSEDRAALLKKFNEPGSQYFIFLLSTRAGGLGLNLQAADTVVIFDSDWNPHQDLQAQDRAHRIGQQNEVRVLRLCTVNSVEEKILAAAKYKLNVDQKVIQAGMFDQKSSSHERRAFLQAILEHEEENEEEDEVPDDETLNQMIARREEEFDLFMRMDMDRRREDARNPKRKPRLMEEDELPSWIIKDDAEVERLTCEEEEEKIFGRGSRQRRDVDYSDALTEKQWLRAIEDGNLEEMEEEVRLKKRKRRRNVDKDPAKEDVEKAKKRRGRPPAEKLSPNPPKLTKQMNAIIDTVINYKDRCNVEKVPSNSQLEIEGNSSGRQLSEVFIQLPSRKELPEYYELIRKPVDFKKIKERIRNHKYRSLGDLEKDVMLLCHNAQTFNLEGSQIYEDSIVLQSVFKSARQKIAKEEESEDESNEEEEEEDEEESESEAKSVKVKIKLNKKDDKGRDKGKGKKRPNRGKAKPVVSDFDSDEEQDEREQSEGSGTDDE

For the compound `COC[C@H](NC(=O)c1ccn(S(C)(=O)=O)c1)C(=O)Nc1nc(-c2cccc(N3CC(OC)C3)c2)cs1` [Compound 367], the IC50 in assay [1] (read-out: BRM IP50 (μM)*) and in assay [2] (read-out: BRG1 IP50 (μM)*) was > 0.01 µM in each case.
For `COC[C@H](NC(=O)c1ccn(S(C)(=O)=O)c1)C(=O)Nc1nc(-c2cccc(N3C[C@@H](C)O[C@@H](C)C3)c2F)cs1` [Compound 368], the IC50 in assay [1] (read-out: BRM IP50 (μM)*) and in assay [2] (read-out: BRG1 IP50 (μM)*) was > 0.01 µM each time.
Consider `COC[C@H](NC(=O)c1ccn(S(C)(=O)=O)c1)C(=O)Nc1nc(-c2cccc(N3CCC(O)CC3)c2)cs1` [Compound 369], for which the results for the IC50 in assay [1] (read-out: BRM IP50 (μM)*) and in assay [2] (read-out: BRG1 IP50 (μM)*) were < 0.01 µM and > 0.01 µM, respectively.
For `C[C@H](NC(=O)c1ccn(S(C)(=O)=O)c1)C(=O)Nc1nc(-c2cccc(N3CCC(O)CC3)c2)cs1` [Compound 370], the IC50 in assay [1] (read-out: BRM IP50 (μM)*) and in assay [2] (read-out: BRG1 IP50 (μM)*) was > 0.01 µM throughout.
As for `COC[C@H](NC(=O)c1ccn(S(C)(=O)=O)c1)C(=O)Nc1nc(-c2cccc(N3C[C@@H](C)O[C@@H](C)C3)c2)cs1` [Compound 371], the IC50 in assay [1] (read-out: BRM IP50 (μM)*) and in assay [2] (read-out: BRG1 IP50 (μM)*) was < 0.01 µM in each case.
As to `COC[C@H](NC(=O)c1ccn(S(C)(=O)=O)c1)C(=O)Nc1nc(-c2cccc(N3CCO[C@H](C)C3)c2)cs1` [Compound 372], the values for the IC50 in assay [1] (read-out: BRM IP50 (μM)*) and in assay [2] (read-out: BRG1 IP50 (μM)*) were < 0.01 µM and > 0.01 µM, respectively.
Consider `COC[C@H](NC(=O)c1ccn(S(C)(=O)=O)c1)C(=O)Nc1nc(-c2cccc(N3CCO[C@@H](C)C3)c2)cs1` [Compound 373], for which the IC50 is < 0.01 µM in assay [1] (read-out: BRM IP50 (μM)*) and > 0.01 µM in assay [2] (read-out: BRG1 IP50 (μM)*).
On to `C[C@@H]1CN(c2cccc(-c3cccc(NC(=O)CNC(=O)c4ccn(S(C)(=O)=O)c4)n3)c2)C[C@H](C)O1` [Compound 374, N-[2-[[6-[3-[(cis)-2,6-dimethylmorpholin-4-yl]phenyl]-2-pyridyl]amino]-2-oxo-ethyl]-1-methylsulfonyl-pyrrole-3-carboxamide], for which the IC50 in assay [1] (read-out: BRM IP50 (μM)*) and in assay [2] (read-out: BRG1 IP50 (μM)*) was > 0.01 µM in each case.
In the case of `C[C@@H]1CN(c2cccc(-c3csc(NC(=O)[C@H](CO)NC(=O)c4ccn(C5(C)COC5)c4)n3)n2)C[C@H](C)O1` [Compound 375], the IC50 in assay [1] (read-out: BRM IP50 (μM)*) and in assay [2] (read-out: BRG1 IP50 (μM)*) was > 0.01 µM each time.
Turning to `COC[C@H](NC(=O)c1ccn(C2(C)COC2)c1)C(=O)Nc1nc(-c2ccc(F)c(N3C[C@@H](C)O[C@@H](C)C3)n2)cs1` [Compound 376], the IC50 in assay [1] (read-out: BRM IP50 (μM)*) and in assay [2] (read-out: BRG1 IP50 (μM)*) was > 0.01 µM in each case.
As for `COC[C@H](NC(=O)c1ccn(S(C)(=O)=O)c1)C(=O)Nc1nc(-c2ccc(F)c(N3C[C@@H](C)O[C@@H](C)C3)n2)cs1` [Compound 377], the IC50 is < 0.01 µM in assay [1] (read-out: BRM IP50 (μM)*) and > 0.01 µM in assay [2] (read-out: BRG1 IP50 (μM)*).
Taken in the same sequence, the figures for `C[C@@H]1CN(c2nc(-c3csc(NC(=O)CNC(=O)c4ccn(C5(C)COC5)c4)n3)ccc2F)C[C@H](C)O1` [Compound 378] were < 0.01 µM and > 0.01 µM.
Taken in the same sequence, the figures for `C[C@@H]1CN(c2nc(-c3csc(NC(=O)CNC(=O)c4ccn(S(C)(=O)=O)c4)n3)ccc2F)C[C@H](C)O1` [Compound 379] were < 0.01 µM and < 0.01 µM.
On the same counts, the results for `COC[C@H](NC(=O)c1ccn(S(C)(=O)=O)c1)C(=O)Nc1nc(-c2cc(F)c(F)c(N3C[C@@H](C)O[C@@H](C)C3)c2)cs1` [Compound 380] are < 0.01 µM and < 0.01 µM.
Consider `COC[C@H](NC(=O)c1ccn(C(C)(C)C)c1)C(=O)Nc1nc(-c2ccnc(N3C[C@@H](C)O[C@@H](C)C3)n2)cs1` [Compound 381], for which the IC50 in assay [1] (read-out: BRM IP50 (μM)*) was < 0.01 µM; in assay [2] (read-out: BRG1 IP50 (μM)*) it was > 0.01 µM.
Taken in the same sequence, the figures for `Cn1ncc(-c2cccc(-c3csc(NC(=O)CNC(=O)c4ccn(C(C)(C)C)c4)n3)n2)n1` [Compound 382, 1-tert-butyl-N-[2-[[4-[6-(2-methyltriazol-4-yl)-2-pyridyl]thiazol-2-yl]amino]-2-oxo-ethyl]pyrrole-3-carboxamide] were > 0.01 µM and > 0.01 µM.
`CN1CCCc2ccc(-c3csc(NC(=O)CNC(=O)c4ccn(C(C)(C)C)c4)n3)nc21` [Compound 383]: the IC50 was > 0.01 µM in assay [1] (read-out: BRM IP50 (μM)*) and > 0.1 µM in assay [2] (read-out: BRG1 IP50 (μM)*).
On the same counts, the results for `C[C@@H]1CN(c2cc(-c3csc(NC(=O)CNC(=O)c4ccn(S(C)(=O)=O)c4)n3)cc(F)c2F)C[C@H](C)O1` [Compound 384] are < 0.01 µM and < 0.01 µM.
On to `CS(=O)(=O)n1ccc(C(=O)NCC(=O)Nc2nc(-c3cccc([C@H]4CC[C@H](O)CC4)c3)cs2)c1` [Compound 386, N-(2-((4-(3-((trans)-4-hydroxycyclohexyl)phenyl)thiazol-2-yl)amino)-2-oxoethyl)-1-(methylsulfonyl)-1H-pyrrole-3-carboxamide], for which the IC50 in assay [1] (read-out: BRM IP50) and in assay [2] (read-out: BRG1 IP50) was < 0.01 µM throughout.
Take `CS(=O)(=O)n1ccc(C(=O)NCC(=O)Nc2nc(-c3cccc([C@H]4CC[C@@H](O)CC4)c3)cs2)c1` [Compound 387, N-(2-((4-(3-((cis)-4-hydroxycyclohexyl)phenyl)thiazol-2-yl)amino)-2-oxoethyl)-1-(methylsulfonyl)-1H-pyrrole-3-carboxamide]: the IC50 in assay [1] (read-out: BRM IP50) and in assay [2] (read-out: BRG1 IP50) was > 0.01 µM throughout.
In the case of `CC1(C)CC(c2cccc(-c3csc(NC(=O)CNC(=O)c4ccn(S(C)(=O)=O)c4)n3)c2)CC(C)(C)O1` [Compound 388], the IC50 in assay [1] (read-out: BRM IP50) is > 0.01 µM; in assay [2] (read-out: BRG1 IP50), > 0.1 µM.
Take `CS(=O)(=O)n1ccc(C(=O)NCC(=O)Nc2nc(-c3cccc(C4=CCN(C5COC5)CC4)c3)cs2)c1` [Compound 389]: the IC50 in assay [1] (read-out: BRM IP50) and in assay [2] (read-out: BRG1 IP50) was > 0.01 µM throughout.
As to `CS(=O)(=O)n1ccc(C(=O)NCC(=O)Nc2nc(-c3cccc([C@H]4CCCCO4)c3)cs2)c1` [Compound 393], the IC50 in assay [1] (read-out: BRM IP50) and in assay [2] (read-out: BRG1 IP50) was > 0.01 µM in each case.
Turning to `CN1CCCc2ccc(-c3csc(NC(=O)CNC(=O)c4ccn(S(C)(=O)=O)c4)n3)nc21` [Compound 394], the IC50 in assay [1] (read-out: BRM IP50) and in assay [2] (read-out: BRG1 IP50) was > 0.01 µM in each case.
Regarding `CC(C)(C)n1ccc(C(=O)NCC(=O)Nc2nc(-c3cccc(C4(O)CC4)n3)cs2)c1` [Compound 395], the IC50 in assay [1] (read-out: BRM IP50) and in assay [2] (read-out: BRG1 IP50) was > 0.1 µM each time.
For `CS(=O)(=O)n1ccc(C(=O)NCC(=O)Nc2nc(-c3cccc(C4=CCCOC4)c3)cs2)c1` [Compound 396, N-[2-[[4-[3-(3,6-dihydro-2H-pyran-5-yl)phenyl]thiazol-2-yl]amino]-2-oxo-ethyl]-1-methylsulfonyl-pyrrole-3-carboxamide], the IC50 in assay [1] (read-out: BRM IP50) is < 0.01 µM; in assay [2] (read-out: BRG1 IP50), > 0.01 µM.
Taken in the same sequence, the figures for `CC(C)(C)n1ccc(C(=O)NCC(=O)Nc2nc(-c3cccc(N4CCC5(CC4)COC5)c3)cs2)c1` [Compound 397, N-(2-((4-(3-(2-oxa-7-azaspiro[3.5]nonan-7-yl)phenyl)thiazol-2-yl)amino)-2-oxoethyl)-1-(tert-butyl)-1H-pyrrole-3-carboxamide] were > 0.1 µM and > 0.1 µM.
For the compound `CS(=O)(=O)n1ccc(C(=O)NCC(=O)Nc2nc(-c3cccc(C4CCOCC4)c3)cs2)c1` [Compound 399], the IC50 in assay [1] (read-out: BRM IP50) and in assay [2] (read-out: BRG1 IP50) was > 0.01 µM each time.
Regarding `CS(=O)(=O)n1ccc(C(=O)NCC(=O)Nc2nc(-c3cccc(C4=CCOCC4)c3)cs2)c1` [Compound 400], the IC50 in assay [1] (read-out: BRM IP50) and in assay [2] (read-out: BRG1 IP50) was < 0.01 µM each time.
Turning to `Cc1ccc(Cl)c(-c2cc(-c3csc(NC(=O)CNC(=O)c4ccn(S(C)(=O)=O)c4)n3)ccc2C)n1` [Compound 401, N-(2-((4-(3-(3-chloro-6-methylpyridin-2-yl)-4-methylphenyl)thiazol-2-yl)amino)-2-oxoethyl)-1-(methylsulfonyl)-1H-pyrrole-3-carboxamide], the IC50 in assay [1] (read-out: BRM IP50) and in assay [2] (read-out: BRG1 IP50) was > 0.1 µM throughout.
With `Cc1cc(-c2cccc(-c3csc(NC(=O)CNC(=O)c4ccn(C(C)(C)C)c4)n3)c2)cnn1` [Compound 402], the IC50 was < 0.01 µM in assay [1] (read-out: BRM IP50) and > 0.01 µM in assay [2] (read-out: BRG1 IP50).
On the same counts, the results for `CCS(=O)(=O)n1ccc(C(=O)NCC(=O)Nc2nc(-c3cccc(-c4cnn(C)n4)c3)cs2)c1` [Compound 403] are > 0.01 µM and > 0.01 µM.
For `CS(=O)(=O)n1ccc(C(=O)NCC(=O)Nc2nc(-c3cccc(-c4cc5n(n4)CCOC5)c3)cs2)c1` [Compound 404], the IC50 was < 0.01 µM in assay [1] (read-out: BRM IP50) and > 0.01 µM in assay [2] (read-out: BRG1 IP50).
Taken in the same sequence, the figures for `Cc1cc(C)nc(-c2cccc(-c3csc(NC(=O)CNC(=O)c4ccn(S(C)(=O)=O)c4)n3)c2)n1` [Compound 405] were < 0.01 µM and < 0.01 µM.
Take `Cc1cc(C)nc(-c2cccc(-c3csc(NC(=O)CNC(=O)c4ccn(S(C)(=O)=O)c4)n3)c2)c1` [Compound 406]: the IC50 in assay [1] (read-out: BRM IP50) and in assay [2] (read-out: BRG1 IP50) was < 0.01 µM each time.
For `Cc1cccc(-c2cccc(-c3csc(NC(=O)CNC(=O)c4ccn(S(C)(=O)=O)c4)n3)c2)n1` [Compound 407], the IC50 in assay [1] (read-out: BRM IP50) and in assay [2] (read-out: BRG1 IP50) was < 0.01 µM throughout.
Take `CS(=O)(=O)n1ccc(C(=O)NCC(=O)Nc2nc(-c3cccc(-c4ccnc(N5CCC5)n4)c3)cs2)c1` [Compound 408, N-[2-[[4-[3-[2-(azetidin-1-yl)pyrimidin-4-yl]phenyl]thiazol-2-yl]amino]-2-oxo-ethyl]-1-methylsulfonyl-pyrrole-3-carboxamide]: the IC50 in assay [1] (read-out: BRM IP50) and in assay [2] (read-out: BRG1 IP50) was < 0.01 µM throughout.
Consider `CS(=O)(=O)n1ccc(C(=O)NCC(=O)Nc2nc(-c3cccc(-c4ccnc(C5CC5)n4)c3)cs2)c1` [Compound 409], for which the IC50 in assay [1] (read-out: BRM IP50) and in assay [2] (read-out: BRG1 IP50) was < 0.01 µM each time.
Take `CS(=O)(=O)n1ccc(C(=O)NCC(=O)Nc2nc(-c3cccc(-c4ccnc(Cl)n4)c3)cs2)c1` [Compound 410]: the IC50 in assay [1] (read-out: BRM IP50) and in assay [2] (read-out: BRG1 IP50) was < 0.01 µM each time.
In the case of `CC1(C)C=C(c2cccc(-c3csc(NC(=O)CNC(=O)c4ccn(S(C)(=O)=O)c4)n3)c2)CC(C)(C)O1` [Compound 411], the IC50 in assay [1] (read-out: BRM IP50) and in assay [2] (read-out: BRG1 IP50) was > 0.01 µM throughout.

For the origin of these results see patent publication US20230079819A1, “COMPOUNDS AND USES THEREOF” (Foghorn Therapeutics Inc., priority 2019, published 2023).
